Assays:
Human Calpain 2/NS1 = molecular target: T1, Human Calpain 2/NS1 (Homo sapiens, UniProt P17655); experiment: Calpain inhibition continuous fluorescence (FRET) assay, Human Calpain 2/NS1; assay type: biochemical; conditions: Column B; read-out: Human Calpain 2/NS1 IC50
T1 sequence (P17655 1-700): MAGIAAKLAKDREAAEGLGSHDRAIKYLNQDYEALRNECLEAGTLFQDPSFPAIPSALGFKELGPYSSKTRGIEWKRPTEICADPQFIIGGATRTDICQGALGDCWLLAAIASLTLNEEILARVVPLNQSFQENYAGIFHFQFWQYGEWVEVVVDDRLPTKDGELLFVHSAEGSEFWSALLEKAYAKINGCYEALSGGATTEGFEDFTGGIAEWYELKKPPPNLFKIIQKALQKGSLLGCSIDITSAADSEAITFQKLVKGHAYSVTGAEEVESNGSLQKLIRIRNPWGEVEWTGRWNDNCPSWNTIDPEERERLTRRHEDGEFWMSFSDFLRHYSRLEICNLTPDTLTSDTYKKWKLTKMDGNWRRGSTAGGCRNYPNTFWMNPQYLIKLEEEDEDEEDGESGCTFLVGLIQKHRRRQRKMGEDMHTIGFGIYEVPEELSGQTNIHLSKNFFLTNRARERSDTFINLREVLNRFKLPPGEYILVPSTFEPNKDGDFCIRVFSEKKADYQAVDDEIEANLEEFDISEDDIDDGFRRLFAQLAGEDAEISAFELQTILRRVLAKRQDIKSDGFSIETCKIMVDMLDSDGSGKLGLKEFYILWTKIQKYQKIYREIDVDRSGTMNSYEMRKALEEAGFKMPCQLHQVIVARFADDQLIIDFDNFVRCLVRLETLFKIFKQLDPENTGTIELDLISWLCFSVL
T1 sequence (P04632 1-268 partner): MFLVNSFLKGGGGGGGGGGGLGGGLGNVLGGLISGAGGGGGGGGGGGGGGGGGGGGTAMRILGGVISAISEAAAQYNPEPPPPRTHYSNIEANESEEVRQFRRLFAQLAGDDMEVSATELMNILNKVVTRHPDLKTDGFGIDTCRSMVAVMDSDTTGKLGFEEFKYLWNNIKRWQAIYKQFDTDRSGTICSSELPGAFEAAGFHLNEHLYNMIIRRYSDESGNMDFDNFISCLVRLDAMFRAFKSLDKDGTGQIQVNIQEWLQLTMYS
Method in brief: (§1)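 Fluorescence increase from the cleaved 5-FAM/QXL 520 substrate, read at 490/520 nm, gave activity. Calcium was supplied with the substrate to activate the enzyme in situ after a 25C enzyme-inhibitor preincubation, and IC50s were fit from initial slopes.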

Human Calpain 1/NS1 = molecular target: T2, Human Calpain 1/NS1 (Homo sapiens, UniProt P07384); experiment: Calpain inhibition continuous fluorescence (FRET) assay, Human Calpain 1/NS1; assay type: biochemical; conditions: Column A; read-out: Human Calpain 1/NS1 IC50
T2 sequence (P07384 1-714): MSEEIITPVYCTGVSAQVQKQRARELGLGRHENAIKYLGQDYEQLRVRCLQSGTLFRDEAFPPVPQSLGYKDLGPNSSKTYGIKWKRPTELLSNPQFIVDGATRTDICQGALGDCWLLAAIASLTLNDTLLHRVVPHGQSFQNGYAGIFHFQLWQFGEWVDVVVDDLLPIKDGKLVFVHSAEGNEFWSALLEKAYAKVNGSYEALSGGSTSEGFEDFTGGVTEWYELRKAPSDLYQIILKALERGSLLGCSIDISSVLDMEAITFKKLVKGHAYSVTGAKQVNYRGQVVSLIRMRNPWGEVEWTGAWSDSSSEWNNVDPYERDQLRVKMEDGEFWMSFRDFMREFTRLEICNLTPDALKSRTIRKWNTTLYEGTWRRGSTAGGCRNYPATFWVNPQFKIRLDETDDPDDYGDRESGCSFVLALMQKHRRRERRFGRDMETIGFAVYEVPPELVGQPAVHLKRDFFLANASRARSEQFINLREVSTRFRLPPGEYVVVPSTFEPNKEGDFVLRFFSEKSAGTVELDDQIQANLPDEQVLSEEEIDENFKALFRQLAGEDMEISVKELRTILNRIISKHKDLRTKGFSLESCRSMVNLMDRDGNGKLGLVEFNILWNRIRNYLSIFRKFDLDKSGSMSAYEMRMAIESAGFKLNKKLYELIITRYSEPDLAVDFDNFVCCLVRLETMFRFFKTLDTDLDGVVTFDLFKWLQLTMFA
T2 sequence (P04632 1-268 partner): T1 sequence (P04632 1-268 partner)
Method in brief: as §1

[1] = test system: Calpain activity in SH-SY5Y cells (SBDP-150); experiment: SH-SY5Y Spectrin western blot assay (SBDP-150 breakdown product, A23187-induced); assay type: cell-based; conditions: Homo sapiens; Column D; SH-SY5Y cells, A23187-induced SBDP-150; read-out: SH-SY5Y Spectrin IC50
[2] = test system: Calpain activity in SH-SY5Y cells; experiment: SH-SY5Y + AMC fluorescence assay (Suc-LLVY-AMC substrate); assay type: cell-based; conditions: Column E, read-out: SH-SY5Y + AMC IC50
Human Calpain 9/NS1 = molecular target: T3, Human Calpain 9/NS1 (Homo sapiens, UniProt O14815); experiment: Calpain inhibition continuous fluorescence (FRET) assay, Human Calpain 9/NS1; assay type: biochemical; conditions: Column C; read-out: Human Calpain 9/NS1 IC50
T3 sequence (O14815 1-690): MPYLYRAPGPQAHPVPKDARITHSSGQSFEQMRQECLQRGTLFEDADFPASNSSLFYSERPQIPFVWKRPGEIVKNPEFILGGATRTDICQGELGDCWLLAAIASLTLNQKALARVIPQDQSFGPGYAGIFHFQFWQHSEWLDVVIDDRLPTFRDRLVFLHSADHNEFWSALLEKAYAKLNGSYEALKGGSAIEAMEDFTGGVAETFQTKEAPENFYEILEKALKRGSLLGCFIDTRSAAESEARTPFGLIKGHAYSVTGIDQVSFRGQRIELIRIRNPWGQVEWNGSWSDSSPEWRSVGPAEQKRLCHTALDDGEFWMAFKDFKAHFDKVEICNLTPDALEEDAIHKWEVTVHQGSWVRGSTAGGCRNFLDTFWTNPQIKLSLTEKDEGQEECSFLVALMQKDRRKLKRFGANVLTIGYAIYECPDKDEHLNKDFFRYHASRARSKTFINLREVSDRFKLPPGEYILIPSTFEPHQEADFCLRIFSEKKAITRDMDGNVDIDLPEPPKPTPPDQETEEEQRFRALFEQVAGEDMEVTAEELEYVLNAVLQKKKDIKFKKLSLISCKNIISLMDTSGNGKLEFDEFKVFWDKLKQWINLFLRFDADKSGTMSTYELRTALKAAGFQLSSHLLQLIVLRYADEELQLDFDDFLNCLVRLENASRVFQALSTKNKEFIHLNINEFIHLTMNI
T3 sequence (P04632 1-268 partner): T1 sequence (P04632 1-268 partner)
Method in brief: as §1

Row | IC50 (Human Calpain 2/NS1) [µM] | IC50 (Human Calpain 1/NS1) [µM] | IC50 [1] [µM] | IC50 [2] [µM] | IC50 (Human Calpain 9/NS1) [µM] | SMILES
1 | < 3 | < 3 | > 25 | > 25 | < 3 | Cn1cc(C(=O)N[C@@H](Cc2ccccc2)C(=O)C(N)=O)c(-c2ccncc2)n1 [Compound 170, (S)—N-(4-amino-3,4-dioxo-1-phenylbutan-2-yl)-1-methyl-3-(pyridin-4-yl)-1H-pyrazole-4-carboxamide]
2 | < 3 | < 3 | 10 to 25 | < 10 | < 3 | COc1cccc(-c2nn(C)cc2C(=O)N[C@@H](Cc2ccccc2)C(=O)C(N)=O)c1 [Compound 177, (S)—N-(4-amino-3,4-dioxo-1-phenylbutan-2-yl)-3-(3-methoxyphenyl)-1-methyl-1H-pyrazole-4-carboxamide]
3 | < 3 | < 3 | < 10 | < 10 | < 3 | Cn1cc(C(=O)N[C@@H](Cc2ccccc2)C(=O)C(N)=O)c(-c2cccc(F)c2)n1 [Compound 178, (S)—N-(4-amino-3,4-dioxo-1-phenylbutan-2-yl)-3-(3-fluorophenyl)-1-methyl-1H-pyrazole-4-carboxamide]
4 | < 3 | < 3 | < 10 | < 10 | < 3 | Cn1cc(C(=O)N[C@@H](Cc2ccccc2)C(=O)C(N)=O)c(-c2ccccc2F)n1 [Compound 181, (S)—N-(4-amino-3,4-dioxo-1-phenylbutan-2-yl)-3-(2-fluorophenyl)-1-methyl-1H-pyrazole-4-carboxamide]
5 | < 3 | < 3 | 10 to 25 | < 10 | < 3 | CCc1cccc(-c2nn(C)cc2C(=O)N[C@@H](Cc2ccccc2)C(=O)C(N)=O)c1 [Compound 182, (S)—N-(4-amino-3,4-dioxo-1-phenylbutan-2-yl)-3-(3-ethylphenyl)-1-methyl-1H-pyrazole-4-carboxamide]
6 | < 3 | < 3 | < 10 | 10 to 25 | < 3 | Cn1cc(C(=O)N[C@@H](Cc2ccccc2)C(=O)C(N)=O)c(-c2cccc(C(F)(F)F)c2)n1 [Compound 183, (S)—N-(4-amino-3,4-dioxo-1-phenylbutan-2-yl)-1-methyl-3-(3-(trifluoromethyl)phenyl)-1H-pyrazole-4-carboxamide]

The next lines start with the compound.

Row | SMILES | IC50 (Human Calpain 2/NS1) [µM] | IC50 (Human Calpain 1/NS1) [µM] | IC50 [1] [µM] | IC50 [2] [µM] | IC50 (Human Calpain 9/NS1) [µM]
7 | Cc1ccccc1-c1nn(C)cc1C(=O)N[C@@H](Cc1ccccc1)C(=O)C(N)=O [Compound 171, (S)—N-(4-amino-3,4-dioxo-1-phenylbutan-2-yl)-1-methyl-3-(o-tolyl)-1H-pyrazole-4-carboxamide] | 3 to 10 | < 3 | > 25 | 10 to 25 | < 3
8 | Cc1cccc(-c2c(C(=O)N[C@@H](Cc3ccccc3)C(=O)C(N)=O)cnn2C)c1 [Compound 172, (S)—N-(4-amino-3,4-dioxo-1-phenylbutan-2-yl)-1-methyl-5-(m-tolyl)-1H-pyrazole-4-carboxamide] | < 3 | < 3 | < 10 | > 25 | < 3
9 | Cn1cc(C(=O)N[C@@H](Cc2ccccc2)C(=O)C(N)=O)c(-c2cncnc2)n1 [Compound 173, (S)—N-(4-amino-3,4-dioxo-1-phenylbutan-2-yl)-1-methyl-3-(pyrimidin-5-yl)-1H-pyrazole-4-carboxamide] | < 3 | < 3 | > 25 | > 25 | < 3
10 | Cn1ncc(C(=O)N[C@@H](Cc2ccccc2)C(=O)C(N)=O)c1-c1cnccn1 [Compound 174] | < 3 | < 3 | > 25 | > 25 | < 3
11 | Cn1ncc(C(=O)N[C@@H](Cc2ccccc2)C(=O)C(N)=O)c1-c1ccncn1 [Compound 175, (S)—N-(4-amino-3,4-dioxo-1-phenylbutan-2-yl)-1-methyl-5-(pyrimidin-4-yl)-1H-pyrazole-4-carboxamide] | < 3 | < 3 | > 25 | < 10 | < 3
12 | Cn1cc(C(=O)N[C@@H](Cc2ccccc2)C(=O)C(N)=O)c(-c2ccc(F)cc2)n1 [Compound 179, (S)—N-(4-amino-3,4-dioxo-1-phenylbutan-2-yl)-3-(4-fluorophenyl)-1-methyl-1H-pyrazole-4-carboxamide] | < 3 | < 3 | 10 to 25 | > 25 | < 3
13 | CC(C)c1cccc(-c2nn(C)cc2C(=O)N[C@@H](Cc2ccccc2)C(=O)C(N)=O)c1 [Compound 180, (S)—N-(4-amino-3,4-dioxo-1-phenylbutan-2-yl)-3-(3-isopropylphenyl)-1-methyl-1H-pyrazole-4-carboxamide] | < 3 | < 3 | < 10 | 10 to 25 | < 3
14 | Cn1cc(C(=O)N[C@@H](Cc2ccccc2)C(=O)C(N)=O)c(-c2cccc(C#N)c2)n1 [Compound 185, (S)—N-(4-amino-3,4-dioxo-1-phenylbutan-2-yl)-3-(3-cyanophenyl)-1-methyl-1H-pyrazole-4-carboxamide] | 3 to 10 | > 10 | > 25 | > 25 | 3 to 10
15 | Cn1cc(C(=O)N[C@@H](Cc2ccccc2)C(=O)C(N)=O)c(-c2cccc(C3CC3)c2)n1 [Compound 186, (S)—N-(4-amino-3,4-dioxo-1-phenylbutan-2-yl)-3-(3-cyclopropylphenyl)-1-methyl-1H-pyrazole-4-carboxamide] | 3 to 10 | 3 to 10 | > 25 | > 25 | 3 to 10

Reference: patent publication US11339130B1 (Blade Therapeutics, Inc., priority 2016, dated 2022)
